Experimental data published in ChEMBL document CHEMBL1155566, “Antifeedant activity of withanolides from Salpichroa origanifolia on Musca domestica” (J Nat Prod, 2000).
Activity calls are given as the source filed them. The calls are words filed in the database; no cut-off is given here.

What was measured:
[1] = test system: Musca domestica; assay: Antifeedant activity against Musca domestica CIPEIN larvae assessed as time needed to pupate 50% at 500 ppm; type: functional
[2] = test system: Musca domestica; assay: Antifeedant activity against Musca domestica CIPEIN larvae assessed as inhibition of larvae development after 18 days; type: functional, organism-based
[3] = test system: Musca domestica; assay: Antifeedant activity against Musca domestica CIPEIN larvae assessed as larval mortality at 200 ppm after 18 days; type: functional
[4] = test system: Musca domestica; assay: Antifeedant activity in Musca domestica CIPEIN larvae assessed as time needed to pupate 50% at 100 ppm; type: functional
[5] = test system: Musca domestica; assay: Antifeedant activity against Musca domestica CIPEIN larvae supplied with medium yeast and milk concentration assessed as time needed to pupate 50%; type: functional
[6] = test system: Musca domestica; assay: Antifeedant activity against Musca domestica CIPEIN larvae supplied with high yeast and milk concentration assessed as time needed to pupate 50%; type: functional

| Structure (SMILES) | Activity [1] | EC50 [2] [ppm] | Activity [3] [%] | Activity [4] [days] | Activity [5] [days] | Activity [6] [days] |
| --- | --- | --- | --- | --- | --- | --- |
| CC(=O)Oc1cc([C@H](C)[C@@H]2C[C@@H]3O[C@@H]3[C@H](OC(C)=O)O2)cc2c1[C@@H]1C[C@@H]3O[C@@]34CC=CC(=O)[C@]4(C)[C@H]1CC2 | Active | – | – | – | – | – |
| C[C@@H](c1ccc2c(c1)CC[C@H]1[C@H]2C[C@@H](O)[C@@]2(O)CC=CC(=O)[C@]12C)[C@@H]1C[C@@H]2O[C@@H]2[C@H](O)O1 [SALPICHROLIDE C] | 8.1 days | 310 | 100 | 7.8 | – | – |
| C[C@@H](c1ccc2c(c1)CC[C@H]1[C@H]2CC(=O)[C@@]2(O)CC=CC(=O)[C@]12C)[C@@H]1C[C@@H]2O[C@@H]2C(=O)O1 | inactive | – | – | – | – | – |
| C[C@@H](c1cc(O)c2c(c1)CC[C@H]1[C@H]2C[C@@H]2O[C@@]23CC=CC(=O)[C@]13C)[C@@H]1C[C@@H]2O[C@@H]2[C@H](O)O1 [SALPICHROLIDE G] | 8 days | 203 | 100 | 7.7 | – | – |
| C[C@@H](c1ccc2c(c1)CC[C@H]1[C@H]2C[C@@H]2O[C@@]23CC=CC(=O)[C@]13C)[C@@H]1C[C@@H]2O[C@@H]2C(=O)O1 | inactive | – | – | – | – | – |
| C[C@@H](c1ccc2c(c1)CC[C@H]1[C@H]2C[C@@H]2O[C@@]23CC=CC(=O)[C@]13C)[C@@H]1C[C@@H]2O[C@@H]2[C@H](O)O1 [SALPICHROLIDE A] | 10.3 days | 290 | 100 | 7.9 | 12.2 | 6.9 |
